Read-outs that look alike come from different tables or passages of the source.
Legend:
human TLR8 = molecular target: T1, human TLR8 (Homo sapiens, UniProt Q9NR97); experiment: Inhibition of human TLR8 in human monocytes (TNF-alpha / IL-1 beta ELISA); type: cell-based; settings: human monocytes, agonist ORN8L 100 μg/mL, 24 hours
T1 construct: endogenous in cells; host or cells: primary human monocytes (CD14 microbeads) from buffy coats of healthy donors
T1 sequence (Q9NR97 27-1041): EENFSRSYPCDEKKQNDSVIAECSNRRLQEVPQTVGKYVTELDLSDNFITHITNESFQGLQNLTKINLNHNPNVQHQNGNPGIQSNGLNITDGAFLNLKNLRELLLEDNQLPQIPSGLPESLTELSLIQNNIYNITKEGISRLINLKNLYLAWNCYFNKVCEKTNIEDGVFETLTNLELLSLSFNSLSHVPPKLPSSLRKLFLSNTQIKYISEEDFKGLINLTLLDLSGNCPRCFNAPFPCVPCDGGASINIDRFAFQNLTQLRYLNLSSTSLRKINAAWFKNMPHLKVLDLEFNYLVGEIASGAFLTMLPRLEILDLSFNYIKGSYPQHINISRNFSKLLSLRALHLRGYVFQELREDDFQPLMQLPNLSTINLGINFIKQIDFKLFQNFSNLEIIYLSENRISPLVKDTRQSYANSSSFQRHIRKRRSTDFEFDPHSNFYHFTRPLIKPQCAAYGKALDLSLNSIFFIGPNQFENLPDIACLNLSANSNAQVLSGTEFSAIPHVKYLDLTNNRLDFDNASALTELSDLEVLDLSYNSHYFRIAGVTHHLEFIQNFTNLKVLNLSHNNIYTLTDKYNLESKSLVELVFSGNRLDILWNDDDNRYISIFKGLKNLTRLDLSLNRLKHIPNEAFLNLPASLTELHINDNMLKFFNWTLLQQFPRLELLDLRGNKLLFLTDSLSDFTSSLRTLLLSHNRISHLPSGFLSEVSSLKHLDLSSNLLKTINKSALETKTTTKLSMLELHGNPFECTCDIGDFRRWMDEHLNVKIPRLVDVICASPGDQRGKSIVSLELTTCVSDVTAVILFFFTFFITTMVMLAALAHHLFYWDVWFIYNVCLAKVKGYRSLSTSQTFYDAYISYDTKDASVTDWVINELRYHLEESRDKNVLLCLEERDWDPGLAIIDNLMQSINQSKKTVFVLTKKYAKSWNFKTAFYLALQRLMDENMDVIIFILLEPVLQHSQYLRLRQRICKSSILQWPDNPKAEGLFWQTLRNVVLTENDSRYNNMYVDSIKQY
From the text: Example B2—Inhibition of Human TLR8 in Human Monocytes
When placed in cell culture, engagement of TLR8 with an agonist leads to expression and release of cytokines into the media.
Buffy coats from anonymized, healthy human donors. CD14 microbeads (Milteny Cat. No. 130-050-201). TLR8 agonist, (5′-M2UGCUGCUUGUG-/glycerol/-GUGUUCGUCGUM2-5′ with M2=C6-linker, ORN8L, RNA oligonucleotide (Chem Genes Corp.). Human TNF-alpha ELISA kit (Mabtech Cat. No. 3510-1H-20). Human interleukin (IL)-1 beta ELISA kit (Mabtech Cat. No. 3415-1H-20).
Following isolation of monocytes from buffy coats, human monocytes were plated into 96 well plates at approximately 200,000 cells per well. Test compounds were serially diluted and added to the plates. Immediately after adding test compounds, the TLR8 agonist (ORN8L, RNA oligonucleotide) was added to a final concentration of 100 μg/mL. Cells were incubated for 24 hours at 37° C. A portion of the media supernatant was analyzed for the presence of TNF-alpha and/or IL-1 beta using ELISA kits. The amount of TNF-alpha or IL-1 beta produced is a reflection of the amount of TLR8-dependent receptor activity. The IC50 values (the concentration at which 50% of the TLR8-dependent receptor activity is reduced) were calculated based upon the TLR8-dependent receptor activity over a range of different test compound concentrations.

human TLR9 = molecular target: T2, human TLR9 (Homo sapiens, UniProt Q9NR96); experiment: Inhibition of human TLR9 in human B cells (IL-6 ELISA); type: cell-based; settings: for IC50: human B cells, agonist 1018 ISS 1 μM; for inhibits TLR9-dependent responses (in words): summary statement of the description
T2 construct: endogenous in cells; host or cells: primary human B cells (CD19 microbeads) from buffy coats of healthy donors
T2 sequence (Q9NR96 26-1032): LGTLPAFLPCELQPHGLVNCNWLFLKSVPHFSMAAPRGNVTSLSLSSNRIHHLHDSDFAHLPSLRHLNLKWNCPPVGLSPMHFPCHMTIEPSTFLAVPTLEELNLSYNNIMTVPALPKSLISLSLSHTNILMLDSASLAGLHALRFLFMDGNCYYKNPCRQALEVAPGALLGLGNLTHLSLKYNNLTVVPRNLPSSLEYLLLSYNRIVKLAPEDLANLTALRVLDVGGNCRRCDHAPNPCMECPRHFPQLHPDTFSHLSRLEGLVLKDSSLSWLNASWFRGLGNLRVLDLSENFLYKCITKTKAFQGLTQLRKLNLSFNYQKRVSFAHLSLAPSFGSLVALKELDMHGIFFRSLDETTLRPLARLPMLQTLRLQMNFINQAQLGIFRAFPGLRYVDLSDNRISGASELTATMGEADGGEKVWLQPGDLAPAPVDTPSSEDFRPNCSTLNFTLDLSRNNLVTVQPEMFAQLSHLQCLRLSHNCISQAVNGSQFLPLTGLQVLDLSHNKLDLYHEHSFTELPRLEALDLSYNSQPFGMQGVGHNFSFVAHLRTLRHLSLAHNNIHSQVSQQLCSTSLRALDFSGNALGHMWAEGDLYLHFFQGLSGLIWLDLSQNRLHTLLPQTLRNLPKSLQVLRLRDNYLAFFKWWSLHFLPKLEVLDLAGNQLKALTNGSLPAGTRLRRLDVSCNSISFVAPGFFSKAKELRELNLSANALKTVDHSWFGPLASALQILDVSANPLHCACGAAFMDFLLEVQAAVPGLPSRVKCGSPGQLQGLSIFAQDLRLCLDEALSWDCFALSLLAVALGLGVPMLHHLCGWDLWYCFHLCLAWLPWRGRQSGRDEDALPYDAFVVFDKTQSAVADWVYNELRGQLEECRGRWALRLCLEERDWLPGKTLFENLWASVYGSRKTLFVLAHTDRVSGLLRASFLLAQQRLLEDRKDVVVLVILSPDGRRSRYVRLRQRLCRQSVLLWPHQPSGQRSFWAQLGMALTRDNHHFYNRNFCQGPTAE
Description: Example B3—Inhibition of Human TLR9 in Human B Cells
When placed in cell culture, engagement of TLR9 with an agonist leads to expression and release of cytokines into the media.
Buffy coats from anonymized, healthy human donors. CD19 microbeads (Miltenyi Cat. No. 130-050-301). TLR9 agonist, 1018 ISS, CpG-containing DNA oligonucleotide. Human interleukin (IL)-6 ELISA kit (Mabtech Cat. No. 3460-1H-20).
Following isolation of […] from buffy coats, human B cells were plated into 96 well plates at approximately 300,000 cells per well. Test compounds were serially diluted and added to the plates. Test compounds were typically assayed using a concentration range from about 0.01 μM to about 10 μM. Certain test compounds were further assayed in an expanded dilution series using a compound concentration range from about 0.001 μM to about 30 μM. Immediately after adding test compounds, the TLR9 agonist (1018 ISS, CpG-containing DNA oligonucleotide) was added to a final concentration of 1 μM. Cells were incubated for 48 hours at 37° C. A portion of the media supernatant was analyzed for the presence of IL-6 using ELISA kits. The amount of IL-6 produced is a reflection of the amount of TLR9-dependent receptor activity. The IC50 values (the concentration at which 50% of the TLR9-dependent receptor activity is reduced) were calculated based upon the TLR9-dependent receptor activity over a range of different test compound concentrations.

[1] = TNF-alpha readout, read-out: Human TLR8 IC50 TNF-a
[2] = IL-6 readout, 48 hours, range about 0.01 to 10 μM, read-out: Human TLR9 IC50
[3] = IL-1 beta readout, read-out: Human TLR8 IC50 IL-1b
[4] = IL-6, 48 hours, expanded dilution series about 0.001 to 30 μM, read-out: Human TLR9 IC50, expanded dilution series

IC50 (human TLR8; [1]) [µM] | IC50 (human TLR9; [2]) [µM] | IC50 (human TLR8; [3]) [µM] | inhibits TLR9-dependent responses (in words) (human TLR9) | IC50 (human TLR9; [4]) [µM] | SMILES
≥ 20 | 3.77 |  |  |  | CNC(=O)C1CCN(c2nnc(C)c3c(C)n(-c4ccc(C)cc4)nc23)CC1 [2-2]
> 10 | > 10 | > 10 |  |  | Cc1ccc(-n2nc3c(N4CCC(C(=O)N5CCOCC5)CC4)nnc(C)c3c2C)cc1 [2-3]
> 10 | > 10 | > 10 |  |  | Cc1ccc(-n2nc3c(N4CCC(C(=O)NCCCN5CCc6ccccc65)CC4)nnc(C)c3c2C)cc1 [2-4]
> 10 | > 10 | > 10 |  |  | Cc1ccc(-n2nc3c(N4CCC(C(=O)NCCCN5CCCc6ccccc65)CC4)nnc(C)c3c2C)cc1 [2-5]
> 10 | > 10 | > 10 |  |  | Cc1ccc(-n2nc3c(N4CCC(C(=O)NCCCc5ccccc5)CC4)nnc(C)c3c2C)cc1 [2-6]
> 10 | 0.427 | > 10 |  |  | Cc1ccc(-n2nc3c(N4CCC(C(=O)NCCCCCc5ccccc5)CC4)nnc(C)c3c2C)cc1 [2-12]
> 10 | 0.368 | > 10 |  |  | CCN(CC)CCCNC(=O)C1CCN(c2nnc(C)c3c(C)n(-c4ccccc4)nc23)CC1 [7x, N-(3-(diethylamino)propyl)-1-(3,4-dimethyl-2-phenyl-2H-pyrazolo[3,4-d]pyridazin-7-yl)piperidine-4-carboxamide]
> 10 | 0.04 | > 10 | inhibit |  | CCN(CC)CCCNC(=O)C1CCN(c2nnc(C)c3c(C)n(-c4ccc(OC)cc4)nc23)CC1 [9x, N-(3-(diethylamino)propyl)-1-(2-(4-methoxyphenyl)-3,4-dimethyl-2H-pyrazolo[3,4-d]pyridazin-7-yl)piperidine-4-carboxamide]
4.6 | 0.408 |  |  |  | Cc1ccc(-n2nc3c(N4CCC(C(=O)NCCCN5CCCC5)CC4)nnc(C)c3c2C)cc1 [15x, 1-(3,4-dimethyl-2-(p-tolyl)-2H-pyrazolo[3,4-d]pyridazin-7-yl)-N-(3-(pyrrolidin-1-yl)propyl)piperidine-4-carboxamide]
≥ 20 | 0.017 |  | inhibit |  | Cc1ccc(-n2nc3c(N4CCC(C(=O)NCCN5CCOCC5)CC4)nnc(C)c3c2C)cc1 [17x, 1-(3,4-dimethyl-2-(p-tolyl)-2H-pyrazolo[3,4-d]pyridazin-7-yl)-N-(2-morpholinoethyl)piperidine-4-carboxamide]
4.86 | 0.003 | 5.04 |  |  | CCN(CC)CCNC(=O)C1CCN(c2nnc(C)c3c(C)n(-c4ccc(C)cc4)nc23)CC1 [20x, N-(2-(diethylamino)ethyl)-1-(3,4-dimethyl-2-(p-tolyl)-2H-pyrazolo[3,4-d]pyridazin-7-yl)piperidine-4-carboxamide]
> 10 | 0.032 | > 10 | inhibit |  | Cc1nnc(N2CCC(C(=O)NCCN3CCCCC3C)CC2)c2nn(-c3ccccc3)c(C)c12 (stereo not drawn) [24x, 1-(3,4-dimethyl-2-phenyl-2H-pyrazolo[3,4-d]pyridazin-7-yl)-N-(2-(2-methylpiperidin-1-yl)ethyl)piperidine-4-carboxamide]
 |  |  | inhibit |  | Cc1ccc(-n2nc3c(N4CCC(C(=O)N5CC[C@H](CN(C)C)C5)CC4)nnc(C)c3c2C)cc1 [Compound 45a, (R)-(1-(3,4-dimethyl-2-(p-tolyl)-2H-pyrazolo[3,4-d]pyridazin-7-yl)piperidin-4-yl)(3-((dimethylamino)methyl)pyrrolidin-1-yl)methanone]
 |  |  | inhibit |  | Cc1ccc(-n2nc3c(N4CCC(C(=O)N5CC[C@@H](CN(C)C)C5)CC4)nnc(C)c3c2C)cc1 [Compound 45b, (S)-(1-(3,4-dimethyl-2-(p-tolyl)-2H-pyrazolo[3,4-d]pyridazin-7-yl)piperidin-4-yl)(3-((dimethylamino)methyl)pyrrolidin-1-yl)methanone]
 | 0.007 |  |  | 0.009 | Cc1ccc(-n2cc3cncc(N4CCC(C(=O)NCCCN(C)C)CC4)c3n2)cc1 [Compound No. 55, N-(3-(dimethylamino)propyl)-1-(2-(p-tolyl)-2H-pyrazolo[4,3-c]pyridin-7-yl)piperidine-4-carboxamide]
 | 0.018 |  |  | 0.024 | Cc1ccc(-n2nc3c(N4CCC(C)(C(=O)NCCCN(C)C)CC4)nnc(C)c3c2C)cc1 [compound 20, 1-(3,4-dimethyl-2-(p-tolyl)-2H-pyrazolo[3,4-d]pyridazin-7-yl)-N-(3-(dimethylamino)propyl)-4-methylpiperidine-4-carboxamide]
